Results on 11 molecules are retold here after ChEMBL document CHEMBL5214921, “Bacterial type I signal peptidase inhibitors - Optimized hits from nature” (Eur J Med Chem, 2022).

Test [1] can be described thus: Inhibition of LepB (unknown origin). Also noted: species or system Bacteria.
Test [2] concerns Staphylococcus aureus. The test is described as follows: Antibacterial activity against methicillin-resistant Staphylococcus aureus assessed as bacterial growth inhibition measured after 24 hrs. It is filed as functional.
The subject of test [3] is Staphylococcus aureus. The test is described as follows: Antibacterial activity against methicillin-resistant Staphylococcus aureus assessed as bacterial growth inhibition. It is filed as functional.
Test [4] relates to Staphylococcus aureus. The test is described as follows: Antibacterial activity against Staphylococcus aureus NCTC 8325 assessed as bacterial cell growth inhibition by CLSI based broth microdilution method. It counts as functional.
In test [5] the test system is Staphylococcus epidermidis. The test is described as follows: Antibacterial activity against Staphylococcus epidermidis assessed as bacterial cell growth inhibition by CLSI based broth microdilution method. It is filed as functional.
The test system of test [6] is Staphylococcus aureus. The test is described as follows: Antibacterial activity against Staphylococcus aureus assessed as bacterial cell growth inhibition. It is filed as functional.
In test [7] the test system is Staphylococcus epidermidis. The test is described as follows: Antibacterial activity against Staphylococcus epidermidis assessed as bacterial cell growth inhibition. It counts as functional.
Test [8] relates to Pseudomonas aeruginosa. The test is described as follows: Antibacterial activity against wild type Pseudomonas aeruginosa PA14 assessed as inhibition of bacterial growth […] by CLSI based protocol. It is filed as functional.
In test [9] the test system is Pseudomonas aeruginosa. The test is described as follows: Antibacterial activity against wild type Pseudomonas aeruginosa PA14 assessed as inhibition of bacterial growth. It is filed as functional.
The test system of test [10] is Escherichia coli. The test is described as follows: Antibacterial activity against Escherichia coli ATCC 25922 assessed as bacterial cell growth inhibition. It counts as functional.
A short description of test [11]: Inhibition of Escherichia coli Signal peptidase I using decanoyl-k(DABCYL)-TPTAKAASKKD-D(EDANS)-NH2 as substrate by fluorescence-based analysis.
Test [12] in a line: Inhibition of Streptococcus pneumoniae Signal peptidase I using decanoyl-k(DABCYL)-TPTAKAASKKD-D(EDANS)-NH2 as substrate by fluorescence-based analysis.
Test [13] in a line: Inhibition of Staphylococcus aureus SpsB incubated for 15 mins by fluorescence based analysis.
For test [14], the system named is Escherichia coli. The test is described as follows: Antibacterial activity against Escherichia coli MG1655 assessed as bacterial cell growth inhibition measured after 18 hrs by CLSI based broth microdilution method. It counts as functional.
Test [15] relates to Escherichia coli. The test is described as follows: Antibacterial activity against Escherichia coli assessed as bacterial cell growth inhibition. It is filed as functional.
Test [16] relates to Staphylococcus aureus. The test is described as follows: Antibacterial activity against Staphylococcus aureus 8325 assessed as bacterial cell growth inhibition measured after 18 hrs by CLSI based broth microdilution method. It is filed as functional.
The test system of test [17] is Staphylococcus epidermidis. The test is described as follows: Antibacterial activity against Staphylococcus epidermidis ATCC 35984 assessed as bacterial cell growth inhibition measured after 18 hrs by CLSI based broth microdilution method. It is filed as functional.

Structures are written as SMILES. ≈ marks a conversion by molar mass, not a printed value. *1 amine or outer side, *2 acyl side, *3 side chain or, on linkers, in order; H or OH if unused. Where a SMILES comes first, the peptide text is derived from it. [ ]: non-standard residue; d: D form. The star is where a group is joined. X1 = C[C@H](N[*:1])C(=O)C(=O)[*:2]; NMeT = CN[C@H](C(=O)O)[C@@H](C)O; Decanoyl = CCCCCCCCCC(=O)*; βAla = NCCC(=O)O

`C=CCOC(=O)C1=CS[C@H]2[C@@H]([C@@H](C)O)C(=O)N12` gave an IC50 in test [1] of 180 nM.

As to `C=CCOC(=O)C1=CS[C@H]2[C@@H]([C@@H](C)OC(C)=O)C(=O)N12`, it took 70 nM to reach half-maximal inhibition in [1] (IC50).

Take `O=C(Nc1ccc2c(c1)OC(F)(F)O2)Nc1ccc(Cl)c(C(F)(F)F)c1`: the values for the MIC with Staphylococcus aureus [2] and in the test with Staphylococcus aureus [3] were 0.3 µM (≈ 0.118 µg/mL) and 0.12 µg/mL (≈ 0.304 µM), respectively.

With `C[C@@H]1NC(=O)[C@@H](N(C)C(=O)CNC(=O)[C@@H](C)NC(=O)[C@@H](CO)NC(=O)CCCCCCCCc2ccc(-c3ccccc3)cc2)c2ccc(O)c(c2)-c2cc(ccc2O)C[C@@H](C(=O)O)NC1=O`, the MIC (with Staphylococcus aureus [4]; in [5]) was 16 µg/mL (≈ 17.4 µM) throughout.

As for `Cc1nc(-c2ccc(C(C)(C)C)cc2)ncc1C(=O)N[C@@H](CCN)C(=O)N(C)[C@@H]1C(=O)N[C@@H](C)C(=O)N[C@H](C(=O)NCC#N)Cc2cc(OCCN)cc(c2)-c2cc1ccc2OCCN`, the MIC came to 0.06 µg/mL (≈ 0.0674 µM) with Staphylococcus aureus [6]; 0.25 µg/mL (≈ 0.281 µM) in test [7]; 2 µM (≈ 1.78 µg/mL) in the test with Pseudomonas aeruginosa [8]; 1.78 µg/mL (≈ 2 µM) in the test on Pseudomonas aeruginosa [9]; 0.125 µg/mL (≈ 0.14 µM) with Escherichia coli [10].

Take `CCCC(C)/C=C(/C)C(=O)OC(CCCCCCC/C=C/C(=O)NCCC(=O)N[C@@H](CS(=O)(=O)O)C(=O)N(C)[C@@H]1C(=O)N[C@@H](C)C(=O)N[C@H](C(=O)O)Cc2ccc(O)c(c2)-c2cc1cc(O)c2O[C@@H]1O[C@@H](C)[C@H](OS(=O)(=O)O)[C@@H](OS(=O)(=O)O)[C@H]1O)CCC(C)C` (stereo partly drawn): the values for the IC50 in test [11] and in [12] were 110 nM and 2400 nM, respectively.

For `Cc1nc(-c2ccc(C(C)(C)C)cc2)nc(C)c1C(=O)N[C@@H](CCN)C(=O)N(C)[C@@H]1C(=O)N[C@@H](C)C(=O)N[C@H](C(=O)NCC#N)Cc2cc(OCCN)cc(c2)-c2cc1ccc2OCCN`, the MIC with Pseudomonas aeruginosa [8] turned out to be 2 µM (≈ 1.81 µg/mL); in the test with Pseudomonas aeruginosa [9], 1.81 µg/mL (≈ 2 µM).

In turn, `CCCCCCCCCC(=O)N[C@@H](CC(C)C)C(=O)N[C@H](C(=O)N1CCC[C@H]1C(=O)N(C)[C@H](C(=O)N[C@@H](C)C(=O)N[C@@H](CC(N)=O)C(=O)N[C@@H](C)C(=O)C(=O)NCCC(=O)N[C@@H](CC(=O)O)C(=O)O)[C@@H](C)O)[C@@H](C)O` (Decanoyl-LTP[NMeT]AN[X1][βAla]D-OH) gave a half-maximal inhibitory concentration (IC50) in [13] of 100 nM.

As to `CC(C)CCCCCCCCC(=O)N(C)[C@H](CO)C(=O)N[C@H](C)C(=O)NCC(=O)N(C)[C@@H]1C(=O)N[C@@H](C)C(=O)N[C@H](C(=O)O)Cc2ccc(O)c(c2)-c2cc1ccc2O` [ARYLOMYCIN A2], the MIC with Escherichia coli [14] was > 128 µM; with Staphylococcus aureus [6], 104 µg/mL (≈ 126 µM); in [7], 0.81 µg/mL (≈ 0.982 µM); in the test with Escherichia coli [15] it was 104 µg/mL (≈ 126 µM); with Staphylococcus aureus [16], > 128 µM; in test [17] it was 1 µM (≈ 0.825 µg/mL).

Consider `CCCCCCCCCCCCCCCC(=O)N(C)[C@H](CO)C(=O)N[C@H](C)C(=O)NCC(=O)N(C)[C@@H]1C(=O)N[C@@H](C)C(=O)N[C@H](C(=O)O)Cc2ccc(O)c(c2)-c2cc1ccc2O` [ARYLOMYCIN C16], for which the MIC was found to be 16 µM (≈ 14.1 µg/mL) in the test with Escherichia coli [14], 0.43 µg/mL (≈ 0.488 µM) in [7], 13.9 µg/mL (≈ 15.7 µM) in the test with Escherichia coli [15] and 0.5 µM (≈ 0.441 µg/mL) in test [17].

Consider `CNC(=O)c1cc(Oc2ccc(NC(=O)Nc3ccc(Cl)c(C(F)(F)F)c3)cc2)ccn1` [SORAFENIB], for which the MIC in the test with Staphylococcus aureus [2] worked out at 3 µM (≈ 1.39 µg/mL); in the test on Staphylococcus aureus [3], 1.39 µg/mL (≈ 2.99 µM).
